According to the NIST ThermoML archive (doi:10.1021/je7003929):
± gives the expanded uncertainty stated by the source.

Assay: xn = mol fraction of the nth substance listed
Conditions: Liquid, Vibrating tube method

c1ccc2sccc2c1 [benzo[b]thiophene] + CCCCCC
Conditions	mass density [kg/m3]
352.41 K, 1015 kPa, x2 = 0.0629	1076.7 ± 0.5
352.41 K, 2020 kPa, x2 = 0.0629	1077.4 ± 0.5
352.41 K, 3016 kPa, x2 = 0.0629	1078.1 ± 0.5
352.41 K, 4038 kPa, x2 = 0.0629	1078.8 ± 0.5
352.41 K, 5000 kPa, x2 = 0.0629	1079.5 ± 0.5
352.41 K, 6001 kPa, x2 = 0.0629	1080.4 ± 0.5
352.41 K, 7017 kPa, x2 = 0.0629	1081.1 ± 0.5
352.41 K, 8008 kPa, x2 = 0.0629	1082 ± 0.5
352.41 K, 9017 kPa, x2 = 0.0629	1082.6 ± 0.5
352.41 K, 10026 kPa, x2 = 0.0629	1083.4 ± 0.5
352.41 K, 11018 kPa, x2 = 0.0629	1084.1 ± 0.5
352.41 K, 12014 kPa, x2 = 0.0629	1084.7 ± 0.5
352.41 K, 13014 kPa, x2 = 0.0629	1085.4 ± 0.5
352.41 K, 14022 kPa, x2 = 0.0629	1086.2 ± 0.5
352.41 K, 15028 kPa, x2 = 0.0629	1086.8 ± 0.5
352.41 K, 16020 kPa, x2 = 0.0629	1087.6 ± 0.5
352.41 K, 17023 kPa, x2 = 0.0629	1088.2 ± 0.5
352.41 K, 18015 kPa, x2 = 0.0629	1088.8 ± 0.5
352.41 K, 19016 kPa, x2 = 0.0629	1089.5 ± 0.5
352.41 K, 20019 kPa, x2 = 0.0629	1090.2 ± 0.5
352.53 K, 1025 kPa, x2 = 0.9432	630.4 ± 0.5
352.53 K, 1026 kPa, x2 = 0.7491	725.1 ± 0.5
352.53 K, 2023 kPa, x2 = 0.9432	632.1 ± 0.5
352.53 K, 2026 kPa, x2 = 0.7491	726.5 ± 0.5
352.53 K, 3024 kPa, x2 = 0.7491	727.8 ± 0.5
352.53 K, 3030 kPa, x2 = 0.9432	633.8 ± 0.5
352.53 K, 4018 kPa, x2 = 0.9432	635.4 ± 0.5
352.53 K, 4034 kPa, x2 = 0.7491	729.2 ± 0.5
352.53 K, 5014 kPa, x2 = 0.7491	730.5 ± 0.5
352.53 K, 5021 kPa, x2 = 0.9432	637 ± 0.5
352.53 K, 6018 kPa, x2 = 0.9432	638.5 ± 0.5
352.53 K, 6040 kPa, x2 = 0.7491	731.8 ± 0.5
352.53 K, 7010 kPa, x2 = 0.9432	639.9 ± 0.5
352.53 K, 7028 kPa, x2 = 0.7491	733 ± 0.5
352.53 K, 8017 kPa, x2 = 0.7491	734.3 ± 0.5
352.53 K, 8018 kPa, x2 = 0.9432	641.4 ± 0.5
352.53 K, 9003 kPa, x2 = 0.7491	735.5 ± 0.5
352.53 K, 9044 kPa, x2 = 0.9432	642.8 ± 0.5
352.53 K, 10008 kPa, x2 = 0.7491	736.7 ± 0.5
352.53 K, 10011 kPa, x2 = 0.9432	644.2 ± 0.5
352.53 K, 11016 kPa, x2 = 0.7491	737.9 ± 0.5
352.53 K, 11022 kPa, x2 = 0.9432	645.5 ± 0.5
352.53 K, 12002 kPa, x2 = 0.7491	739 ± 0.5
352.53 K, 12013 kPa, x2 = 0.9432	646.9 ± 0.5
352.53 K, 13005 kPa, x2 = 0.9432	648.2 ± 0.5
352.53 K, 13020 kPa, x2 = 0.7491	740.2 ± 0.5
352.53 K, 14000 kPa, x2 = 0.9432	649.5 ± 0.5
352.53 K, 14016 kPa, x2 = 0.7491	741.3 ± 0.5
352.53 K, 15021 kPa, x2 = 0.9432	650.8 ± 0.6
352.53 K, 15037 kPa, x2 = 0.7491	742.5 ± 0.5
352.53 K, 16022 kPa, x2 = 0.9432	652 ± 0.6
352.53 K, 16035 kPa, x2 = 0.7491	743.6 ± 0.5
352.53 K, 17001 kPa, x2 = 0.9432	653.2 ± 0.6
352.53 K, 17020 kPa, x2 = 0.7491	744.6 ± 0.5
352.53 K, 18013 kPa, x2 = 0.9432	654.4 ± 0.6
352.53 K, 18020 kPa, x2 = 0.7491	745.7 ± 0.5
352.53 K, 19007 kPa, x2 = 0.9432	655.6 ± 0.6
352.53 K, 19008 kPa, x2 = 0.7491	746.7 ± 0.5
352.53 K, 20019 kPa, x2 = 0.7491	747.8 ± 0.5
352.53 K, 20039 kPa, x2 = 0.9432	656.7 ± 0.6
352.63 K, 1037 kPa, x2 = 0.4495	874.2 ± 0.4
352.63 K, 2029 kPa, x2 = 0.4495	875.3 ± 0.5
352.63 K, 3026 kPa, x2 = 0.4495	876.4 ± 0.5
352.63 K, 4032 kPa, x2 = 0.4495	877.5 ± 0.5
352.63 K, 5015 kPa, x2 = 0.4495	878.5 ± 0.5
352.63 K, 6024 kPa, x2 = 0.4495	879.5 ± 0.5
352.63 K, 7028 kPa, x2 = 0.4495	880.5 ± 0.5
352.63 K, 8017 kPa, x2 = 0.4495	881.5 ± 0.5
352.63 K, 9003 kPa, x2 = 0.4495	882.5 ± 0.5
352.63 K, 10022 kPa, x2 = 0.4495	883.5 ± 0.5
352.63 K, 11024 kPa, x2 = 0.4495	884.5 ± 0.5
352.63 K, 12013 kPa, x2 = 0.4495	885.4 ± 0.5
352.63 K, 13038 kPa, x2 = 0.4495	886.4 ± 0.5
352.63 K, 14000 kPa, x2 = 0.4495	887.3 ± 0.5
352.63 K, 15021 kPa, x2 = 0.4495	888.2 ± 0.5
352.63 K, 16012 kPa, x2 = 0.4495	889.1 ± 0.5
352.63 K, 17010 kPa, x2 = 0.4495	890 ± 0.5
352.63 K, 18015 kPa, x2 = 0.4495	890.9 ± 0.5
352.63 K, 19022 kPa, x2 = 0.4495	891.8 ± 0.5
352.63 K, 20005 kPa, x2 = 0.4495	892.7 ± 0.5
362.31 K, 1028 kPa, x2 = 0.9432	620.3 ± 0.5
362.31 K, 2031 kPa, x2 = 0.9432	622.2 ± 0.5
362.31 K, 3031 kPa, x2 = 0.9432	624 ± 0.5
362.31 K, 4012 kPa, x2 = 0.9432	625.7 ± 0.5
362.31 K, 5026 kPa, x2 = 0.9432	627.4 ± 0.5
362.31 K, 6013 kPa, x2 = 0.9432	629.1 ± 0.5
362.31 K, 7022 kPa, x2 = 0.9432	630.7 ± 0.5
362.31 K, 8014 kPa, x2 = 0.9432	632.3 ± 0.5
362.31 K, 9000 kPa, x2 = 0.9432	633.7 ± 0.5
362.31 K, 10011 kPa, x2 = 0.9432	635.3 ± 0.5
362.31 K, 11007 kPa, x2 = 0.9432	636.7 ± 0.5
362.31 K, 12007 kPa, x2 = 0.9432	638.2 ± 0.5
362.31 K, 13008 kPa, x2 = 0.9432	639.6 ± 0.5
362.31 K, 14024 kPa, x2 = 0.9432	640.9 ± 0.5
362.31 K, 15002 kPa, x2 = 0.9432	642.3 ± 0.6
362.31 K, 16016 kPa, x2 = 0.9432	643.6 ± 0.6
362.31 K, 17000 kPa, x2 = 0.9432	644.9 ± 0.6
362.31 K, 18008 kPa, x2 = 0.9432	646.3 ± 0.6
362.31 K, 19018 kPa, x2 = 0.9432	647.5 ± 0.6
362.31 K, 20028 kPa, x2 = 0.9432	648.8 ± 0.6
362.33 K, 1020 kPa, x2 = 0.7491	715.3 ± 0.5
362.33 K, 2034 kPa, x2 = 0.7491	716.8 ± 0.5
362.33 K, 3013 kPa, x2 = 0.7491	718.3 ± 0.5
362.33 K, 4007 kPa, x2 = 0.7491	719.7 ± 0.5
362.33 K, 5015 kPa, x2 = 0.7491	721.2 ± 0.5
362.33 K, 6018 kPa, x2 = 0.7491	722.5 ± 0.5
362.33 K, 7015 kPa, x2 = 0.7491	723.9 ± 0.5
362.33 K, 8017 kPa, x2 = 0.7491	725.2 ± 0.5
362.33 K, 9024 kPa, x2 = 0.7491	726.5 ± 0.5
362.33 K, 10010 kPa, x2 = 0.7491	727.8 ± 0.5
362.33 K, 10996 kPa, x2 = 0.7491	729.1 ± 0.5
362.33 K, 12027 kPa, x2 = 0.7491	730.4 ± 0.5
362.33 K, 13022 kPa, x2 = 0.7491	731.6 ± 0.5
362.33 K, 14016 kPa, x2 = 0.7491	732.8 ± 0.5
362.33 K, 15023 kPa, x2 = 0.7491	734 ± 0.5
362.33 K, 16012 kPa, x2 = 0.7491	735.1 ± 0.5
362.33 K, 17011 kPa, x2 = 0.7491	736.3 ± 0.5
362.33 K, 18012 kPa, x2 = 0.7491	737.4 ± 0.5
362.33 K, 19030 kPa, x2 = 0.7491	738.6 ± 0.5
362.33 K, 20017 kPa, x2 = 0.7491	739.7 ± 0.5
362.5 K, 1028 kPa, x2 = 0.4495	864.8 ± 0.5
362.5 K, 2025 kPa, x2 = 0.4495	866 ± 0.5
362.5 K, 3020 kPa, x2 = 0.4495	867.1 ± 0.5
362.5 K, 4000 kPa, x2 = 0.4495	868.2 ± 0.5
362.5 K, 5045 kPa, x2 = 0.4495	869.3 ± 0.5
362.5 K, 6017 kPa, x2 = 0.4495	870.4 ± 0.5
362.5 K, 7018 kPa, x2 = 0.4495	871.5 ± 0.5
362.5 K, 8013 kPa, x2 = 0.4495	872.5 ± 0.5
362.5 K, 9024 kPa, x2 = 0.4495	873.6 ± 0.5
362.5 K, 10011 kPa, x2 = 0.4495	874.6 ± 0.5
362.5 K, 11008 kPa, x2 = 0.4495	875.6 ± 0.5
362.5 K, 12025 kPa, x2 = 0.4495	876.6 ± 0.5
362.5 K, 13004 kPa, x2 = 0.4495	877.6 ± 0.5
362.5 K, 14014 kPa, x2 = 0.4495	878.6 ± 0.5
362.5 K, 15011 kPa, x2 = 0.4495	879.6 ± 0.5
362.5 K, 16027 kPa, x2 = 0.4495	880.6 ± 0.5
362.5 K, 17017 kPa, x2 = 0.4495	881.5 ± 0.5
362.5 K, 18030 kPa, x2 = 0.4495	882.5 ± 0.5
362.5 K, 19022 kPa, x2 = 0.4495	883.4 ± 0.5
362.5 K, 20002 kPa, x2 = 0.4495	884.3 ± 0.5
